Source: US8471005B2 (Cephalon, Inc., priority 2008, dated 2013)
Read-outs that look alike come from different tables or passages of the source.

What was measured:
ALK = biological target: T1, ALK (Homo sapiens, UniProt Q9UM73); experiment: ALK Kinase Assay (ELISA/TRF, PLC-γ substrate); assay type: biochemical; conditions: read-out: ALK Potency
T1 construct: host or cells: baculovirus expression system
Outline: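 PLC-γ substrate coated at 10 μg/mL in TBS; reaction started with 30 ng/ml ALK, run 15 min at 37° C. Phosphoproduct detected by TRF with Eu-N1-labeled PT66 anti-phosphotyrosine antibody. IC50 from sigmoidal variable-slope fit of percent inhibition versus log concentration.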

JAK2 = biological target: T2, JAK2 (Homo sapiens, UniProt O60674); experiment: Recombinant Human JAK2 Kinase Assay (TRF); assay type: biochemical; conditions: read-out: JAK2 Potency
T2 construct: host or cells: baculovirus expression system
T2 sequence (O60674 whole entry): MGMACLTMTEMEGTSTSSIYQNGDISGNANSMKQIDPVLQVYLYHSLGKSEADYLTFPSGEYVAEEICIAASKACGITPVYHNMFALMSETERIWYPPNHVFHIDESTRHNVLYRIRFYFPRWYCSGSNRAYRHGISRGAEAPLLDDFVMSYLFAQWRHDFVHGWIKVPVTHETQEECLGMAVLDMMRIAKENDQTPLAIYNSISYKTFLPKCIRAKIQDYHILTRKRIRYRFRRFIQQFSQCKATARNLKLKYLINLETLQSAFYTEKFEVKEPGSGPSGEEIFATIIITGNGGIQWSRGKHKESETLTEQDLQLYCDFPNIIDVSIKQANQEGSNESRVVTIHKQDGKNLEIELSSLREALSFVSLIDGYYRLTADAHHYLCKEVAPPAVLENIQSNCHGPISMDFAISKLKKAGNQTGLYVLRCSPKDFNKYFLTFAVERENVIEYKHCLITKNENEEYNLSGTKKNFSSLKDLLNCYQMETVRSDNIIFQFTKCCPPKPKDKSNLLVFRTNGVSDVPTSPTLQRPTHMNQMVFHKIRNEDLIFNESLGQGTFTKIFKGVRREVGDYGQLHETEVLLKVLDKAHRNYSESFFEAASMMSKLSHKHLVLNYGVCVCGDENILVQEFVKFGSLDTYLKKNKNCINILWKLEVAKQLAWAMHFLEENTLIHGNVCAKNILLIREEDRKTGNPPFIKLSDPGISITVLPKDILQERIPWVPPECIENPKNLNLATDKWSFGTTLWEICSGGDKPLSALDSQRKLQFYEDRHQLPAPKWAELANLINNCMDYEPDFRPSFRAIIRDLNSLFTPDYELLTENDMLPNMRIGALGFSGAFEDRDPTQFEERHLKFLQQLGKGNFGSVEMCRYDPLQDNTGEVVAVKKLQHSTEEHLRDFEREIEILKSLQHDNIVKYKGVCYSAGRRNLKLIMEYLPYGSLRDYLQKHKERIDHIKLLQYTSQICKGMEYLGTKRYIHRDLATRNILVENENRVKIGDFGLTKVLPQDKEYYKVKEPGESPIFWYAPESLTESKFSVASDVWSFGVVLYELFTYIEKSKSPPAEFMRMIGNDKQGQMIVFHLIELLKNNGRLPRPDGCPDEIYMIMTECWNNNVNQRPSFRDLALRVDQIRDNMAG
Outline: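 Kinase activity of baculovirus-expressed JAK2 is followed on a surface-immobilised biotinylated peptide, with the reaction run for 20 min at room temperature in buffer containing 0.2 μM ATP and manganese. Phosphorylation is read with Eu-N1 PY100 antibody.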

[1] = ALK kinase inhibition, 1 μM ATP
[2] = JAK2 kinase inhibition, 0.2 μM ATP

T1 sequence (Q9UM73 19-1620): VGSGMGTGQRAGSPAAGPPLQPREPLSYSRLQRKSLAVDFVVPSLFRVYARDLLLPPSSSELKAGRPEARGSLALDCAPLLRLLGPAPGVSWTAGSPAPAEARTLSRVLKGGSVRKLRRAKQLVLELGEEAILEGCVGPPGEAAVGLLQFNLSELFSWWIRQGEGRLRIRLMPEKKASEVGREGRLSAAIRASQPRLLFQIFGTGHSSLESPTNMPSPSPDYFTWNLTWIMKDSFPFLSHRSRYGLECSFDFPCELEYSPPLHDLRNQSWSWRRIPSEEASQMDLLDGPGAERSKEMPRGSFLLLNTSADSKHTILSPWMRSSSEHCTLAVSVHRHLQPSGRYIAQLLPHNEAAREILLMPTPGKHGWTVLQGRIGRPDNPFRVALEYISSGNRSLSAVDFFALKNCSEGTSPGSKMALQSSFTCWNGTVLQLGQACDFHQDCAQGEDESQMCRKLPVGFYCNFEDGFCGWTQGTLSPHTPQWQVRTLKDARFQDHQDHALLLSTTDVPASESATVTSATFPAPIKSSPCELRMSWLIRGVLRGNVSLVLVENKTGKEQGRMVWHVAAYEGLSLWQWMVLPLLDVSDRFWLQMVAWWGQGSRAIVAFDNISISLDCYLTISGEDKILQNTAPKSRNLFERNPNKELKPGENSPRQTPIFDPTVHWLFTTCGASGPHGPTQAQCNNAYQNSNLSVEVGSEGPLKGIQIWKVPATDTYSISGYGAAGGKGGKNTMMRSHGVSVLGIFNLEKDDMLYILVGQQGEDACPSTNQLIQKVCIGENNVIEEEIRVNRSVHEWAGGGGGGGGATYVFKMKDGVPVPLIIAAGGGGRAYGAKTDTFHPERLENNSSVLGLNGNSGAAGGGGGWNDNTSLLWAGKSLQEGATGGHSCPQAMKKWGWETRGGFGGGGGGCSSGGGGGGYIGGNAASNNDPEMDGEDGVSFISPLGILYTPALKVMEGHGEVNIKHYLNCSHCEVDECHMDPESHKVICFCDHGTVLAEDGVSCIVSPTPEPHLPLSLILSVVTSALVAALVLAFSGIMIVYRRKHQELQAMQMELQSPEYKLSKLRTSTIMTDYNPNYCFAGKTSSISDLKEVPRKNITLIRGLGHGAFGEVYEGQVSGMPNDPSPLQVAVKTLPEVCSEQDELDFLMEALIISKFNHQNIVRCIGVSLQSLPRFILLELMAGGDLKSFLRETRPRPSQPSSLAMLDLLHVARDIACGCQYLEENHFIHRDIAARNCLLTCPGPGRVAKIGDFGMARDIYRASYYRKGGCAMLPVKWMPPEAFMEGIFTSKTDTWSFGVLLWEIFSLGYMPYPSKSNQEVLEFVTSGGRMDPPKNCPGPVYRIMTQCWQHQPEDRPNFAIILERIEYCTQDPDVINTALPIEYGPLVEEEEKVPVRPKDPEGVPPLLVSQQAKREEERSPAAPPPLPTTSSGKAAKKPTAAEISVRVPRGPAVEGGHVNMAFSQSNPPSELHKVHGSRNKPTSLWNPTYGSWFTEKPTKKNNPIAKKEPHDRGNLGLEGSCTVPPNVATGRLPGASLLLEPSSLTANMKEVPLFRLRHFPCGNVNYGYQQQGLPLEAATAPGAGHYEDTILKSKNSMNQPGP

| Compound | IC50 (ALK; ALK Kinase Inhibition) | IC50 (JAK2; JAK2 Kinase Inhibition) | IC50 (ALK; [1]) | IC50 (JAK2; [2]) |
| --- | --- | --- | --- | --- |
| COc1ccc(Cl)cc1-c1ccc2cnc(Nc3ccc(N4CCCC(N5CCOCC5)C4)cc3)nn12 (stereo not drawn) [Example 344, [7-(5-Chloro-2-methoxy-phenyl)-pyrrolo[2,1-f][1,2,4]triazin-2-yl]-[4-(3-morpholin-4-yl-piperidin-1-yl)-phenyl]-amine] | < 100 nM | < 100 nM |  |  |
| FC1(F)Oc2cccc(-c3ccc4cnc(Nc5ccc6[nH]c(CN7CCOCC7)nc6c5)nn34)c2O1 [Example 1536, [7-(2,2-Difluoro-benzo[1,3]dioxol-4-yl)-pyrrolo[2,1-f][1,2,4]triazin-2-yl]-(2-morpholin-4-ylmethyl-1H-benzoimidazol-5-yl)-amine] | 100 to 1000 nM | < 100 nM |  |  |
| COc1ccc(-c2ccc3cnc(Nc4ccc(C(=O)N5CCOCC5)cc4)nn23)cn1 [Example 1406, {4-[7-(6-Methoxy-pyridin-3-yl)-pyrrolo[2,1-f][1,2,4]triazin-2-ylamino]-phenyl}-morpholin-4-yl-methanone] | > 10000 nM | < 100 nM |  |  |
| C1=C(c2ccc3cnc(Nc4ccc(N5CCOCC5)cc4)nn23)CCSC1 [Example 613, [7-(3,6-Dihydro-2H-thiopyran-4-yl)-pyrrolo[2,1-f][1,2,4]triazin-2-yl]-(4-morpholin-4-yl-phenyl)-amine] |  |  | 1000 to 10000 nM | < 100 nM |
| COc1cc(C2CCCN(C)C2)ccc1Nc1ncc2ccc(-c3ccccc3OC)n2n1 (stereo not drawn) [Example 805, [2-Methoxy-4-(1-methyl-piperidin-3-yl)-phenyl]-[7-(2-methoxy-phenyl)-pyrrolo[2,1-f][1,2,4]triazin-2-yl]-amine] |  |  | < 100 nM | 100 to 1000 nM |
| OCCN1CCN(c2ccc(Nc3ncc4ccc(-c5cccnc5)n4n3)cc2)CC1 [Example 115, 2-{4-[4-(7-Pyridin-3-yl-pyrrolo[2,1-f][1,2,4]triazin-2-ylamino)-phenyl]-piperazin-1-yl}-ethanol] | 100 to 1000 nM | < 100 nM |  |  |
| (S)-1-(4-{4-[7-(4-Chloro-2-methoxy-phenyl)-pyrrolo[2,1-f][1,2,4]triazin-2-ylamino]-3-methoxy-phenyl}-piperazin-1-yl)-propan-2-ol [Example 487] |  |  | < 100 nM | 100 to 1000 nM |
| CN1CCN(c2ccc(Nc3ncc4c(-c5ccc(F)cc5)ccn4n3)cc2)CC1 [Example 726, [5-(4-Fluoro-phenyl)-pyrrolo[2,1-f][1,2,4]triazin-2-yl]-[4-(4-methyl-piperazin-1-yl)-phenyl]-amine] |  |  | 1000 to 10000 nM | > 10000 nM |
| COc1ccccc1-c1ccc2cnc(Nc3ccc4c(c3OC)CCC(N3CCOCC3)CC4)nn12 (stereo not drawn) [Example 1452, (1-Methoxy-7-morpholin-4-yl-6,7,8,9-tetrahydro-5H-benzo cyclohepten-2-yl)-[7-(2-methoxy-phenyl)-pyrrolo[2,1-f][1,2,4]triazin-2-yl]-amine] | < 100 nM | 100 to 1000 nM |  |  |
| [7-(2-Methoxy-phenyl)-pyrrolo[2,1-f][1,2,4]triazin-2-yl]-(2-methyl-1,2,3,4-tetrahydro-isoquinolin-7-yl)-amine [Example 984] |  |  | 100 to 1000 nM | < 100 nM |
| c1ccc(NCc2ccc3cnc(Nc4ccc(N5CCOCC5)cc4)nn23)cc1 [Example 362, (4-Morpholin-4-yl-phenyl)-(7-phenylaminomethyl-pyrrolo[2,1-f][1,2,4]triazin-2-yl)-amine] | 1000 to 10000 nM | < 100 nM |  |  |
| c1ccc2c(c1)cc1cnc(Nc3ccc(N4CCOCC4)cc3)nn12 [Example 261, (4-Morpholin-4-yl-phenyl)-[1,2,4]triazino[1,6-a]indol-2-yl-amine] | 100 to 1000 nM | < 100 nM |  |  |
| COc1cc(N2CCN(C[C@@H](O)CO)CC2)ccc1Nc1ncc2ccc(-c3cc(Cl)ccc3OC)n2n1 [Example 757, (R)-3-(4-{4-[7-(5-Chloro-2-methoxy-phenyl)-pyrrolo[2,1-f][1,2,4]triazin-2-ylamino]-3-methoxy-phenyl}-piperazin-1-yl)-propane-1,2-diol] |  |  | < 100 nM | 100 to 1000 nM |
| COc1cc(C2CCN(C(=O)OC(C)(C)C)CC2)ccc1Nc1ncc2ccc(-c3ccccc3N(C)S(C)(=O)=O)n2n1 [Example 818, 4-(4-{7-[2-(Methanesulfonyl-methyl-amino)-phenyl]-pyrrolo[2,1-f][1,2,4]triazin-2-ylamino}-3-methoxy-phenyl)-piperidine-1-carboxylic acid tert-butyl ester] |  |  | 100 to 1000 nM | > 10000 nM |
| CCN1CCOC(c2ccc(Nc3ncc4ccc(-c5cccc(NS(C)(=O)=O)c5)n4n3)cc2)C1 (stereo not drawn) [Example 651, N-(3-{2-[4-(4-Ethyl-morpholin-2-yl)-phenylamino]-pyrrolo[2,1-f][1,2,4]triazin-7-yl}phenyl)methanesulfonamide] |  |  | 100 to 1000 nM | < 100 nM |
| CN1CCN(c2ccc(Nc3ncc4ccc(-c5cccc(CN(C)S(C)(=O)=O)c5)n4n3)cc2)CC1 [Example 1048, N-Methyl-N-(3-{2-[4-(4-methyl-piperazin-1-yl)-phenylamino]-pyrrolo[2,1-f][1,2,4]triazin-7-yl}-benzyl)-methanesulfonamide] |  |  | 100 to 1000 nM | < 100 nM |
| Brc1ccc(Nc2ncc3cc4ccccc4n3n2)cc1 [Example 751, (4-Bromo-phenyl)-[1,2,4]triazino[1,6-a]indol-2-yl-amine] |  |  | > 10000 nM | > 10000 nM |
| CN1CCN(c2ccc(Nc3ncc4ccc(-c5ccccc5CO)n4n3)cc2)CC1 [Example 1504, (2-{2-[4-(4-Methyl-piperazin-1-yl)-phenylamino]-pyrrolo[2,1-f][1,2,4]triazin-7-yl}-phenyl)-methanol] | 100 to 1000 nM | < 100 nM |  |  |
| COc1cc2c(cc1Nc1ncc3ccc(-c4ccccc4OC)n3n1)CCC1(CCN(C)CC1)O2 [Example 997, 7-methoxy-N-[7-(2-methoxyphenyl)pyrrolo[2,1-f][1,2,4]triazin-2-yl]-1′-methyl-3,4-dihydrospiro[chromene-2,4′-piperidin]-6-amine] |  |  | < 100 nM | 100 to 1000 nM |
| NC(=O)CN1CCC(c2ccc(Nc3ncc4ccc(-c5cccc(S(=O)(=O)NC6CC6)c5)n4n3)cc2)CC1 [Example 930, 2-(4-{4-[7-(3-Cyclopropylsulfamoyl-phenyl)-pyrrolo[2,1-f][1,2,4]triazin-2-ylamino]-phenyl}-piperidin-1-yl)-acetamide] |  |  | < 100 nM | < 100 nM |
| CC(C)(C)NS(=O)(=O)c1cccc(-c2ccc3cnc(Nc4ccc(N5CCOCC5)cc4)nn23)c1 [Example 561, N-tert-Butyl-3-[2-(4-morpholin-4-yl-phenylamino)-pyrrolo[2,1-f][1,2,4]triazin-7-yl]-benzenesulfonamide] |  |  | 100 to 1000 nM | < 100 nM |
| COc1ccc(-c2ccc3cnc(Nc4cccc(C5(O)CCNCC5)c4)nn23)cn1 [Example 1551, 4-{3-[7-(6-Methoxy-pyridin-3-yl)-pyrrolo[2,1-f][1,2,4]triazin-2-ylamino]-phenyl}-piperidin-4-ol] | 100 to 1000 nM | < 100 nM |  |  |
| CN1CCN(c2ccc(Nc3ncc4ccc(-c5ccc(CN6CCS(=O)(=O)CC6)cc5)n4n3)cc2)CC1 [Example 1031, {7-[4-(1,1-Dioxo-1$1(6)-thiomorpholin-4-ylmethyl)-phenyl]-pyrrolo[2,1-f][1,2,4]triazin-2-yl}-[4-(4-methyl-piperazin-1-yl)-phenyl]-amine] |  |  | < 100 nM | < 100 nM |
| COCCN1CCc2ccc(Nc3ncc4ccc(-c5ccccc5S(=O)(=O)N5CCCC5)n4n3)cc2CC1 [Example 32, [3-(2-Methoxy-ethyl)-2,3,4,5-tetrahydro-1H-benzo[d]azepin-7-yl]-{7-[2-(pyrrolidine-1-sulfonyl)-phenyl]-pyrrolo[2,1-f][1,2,4]triazin-2-yl}-amine] | 100 to 1000 nM | < 100 nM |  |  |
| N#Cc1ccc2cnc(Nc3ccc(N4CCOCC4)cc3)nn12 [Example 51, 2-(4-Morpholin-4-yl-phenylamino)-pyrrolo[2,1-f][1,2,4]triazine-7-carbonitrile] | > 10000 nM | < 100 nM |  |  |
| C[C@H](O)CN1CCC(c2ccc(Nc3ncc4ccc(-c5cccc(NS(C)(=O)=O)c5)n4n3)cc2)CC1 [Example 957, N-[3-(2-{4-[1-((S)-2-Hydroxy-propyl)-piperidin-4-yl]-phenylamino}-pyrrolo[2,1-f][1,2,4]triazin-7-yl)-phenyl]-methanesulfonamide] |  |  | < 100 nM | < 100 nM |
| CN(c1ccccc1-c1ccc2cnc(Nc3nccs3)nn12)S(C)(=O)=O [Example 1362, N-Methyl-N-{2-[2-(thiazol-2-ylamino)-pyrrolo[2,1-f][1,2,4]triazin-7-yl]-phenyl}-methanesulfonamide] |  |  | 1000 to 10000 nM | 100 to 1000 nM |
| COc1cc(C2CCN(C)CC2OC)ccc1Nc1ncc2ccc(-c3ccccc3OC)n2n1 (racemic) [Example 859, (±)-[2-Methoxy-4-(3-methoxy-1-methyl-piperidin-4-yl)-phenyl]-[7-(2-methoxy-phenyl)-pyrrolo[2,1-f][1,2,4]triazin-2-yl]-amine] |  |  | < 100 nM | < 100 nM |
| COc1cc(N2CCCN(C[C@@H](C)O)CC2)ccc1Nc1ncc2ccc(-c3ccccc3OC)n2n1 [Example 766, (R)-1-(4-{3-Methoxy-4-[7-(2-methoxy-phenyl)-pyrrolo[2,1-f][1,2,4]triazin-2-ylamino]-phenyl}-[1,4]diazepan-1-yl)-propan-2-ol] |  |  | < 100 nM | < 100 nM |
| COc1ccccc1-c1ccc2cnc(Nc3ccc(C4CCN(CC(N)=O)CC4)c(OC)c3)nn12 [Example 912, 2-(4-{2-Methoxy-4-[7-(2-methoxy-phenyl)-pyrrolo[2,1-f][1,2,4]triazin-2-ylamino]-phenyl}-piperidin-1-yl)-acetamide] |  |  | < 100 nM | < 100 nM |
